{"source": "ChEMBL document CHEMBL5376003", "about": "“Structure-Activity Relationship of FL118 Platform Position 7 Versus Position 9-Derived Compounds and Their Mechanism of Action and Antitumor Activity” (J Med Chem, 2023)", "key": {"PDX27454 [1]": {"tested_on": "PDX27454", "experiment": "Antitumor activity against human PDX27454 cells xenografted in SCID mouse model assessed as reduction in tumor growth at 3 to 7 mg/kg,po administrated once per week for 4 weeks", "assay_type": "functional, organism-based", "settings": "dose 3-7 mg/kg"}, "[2]": {"experiment": "Toxicity in SCID mouse xenografted with human PDX27454 cells assessed as animal death at 10 mg/kg,ip administrated once per week for 4 weeks", "assay_type": "organism-based", "settings": "in vivo, 672 h"}, "[3]": {"experiment": "Toxicity in SCID mouse xenografted with human PDX27454 cells assessed as body weight loss at 2.5 to 5 mg/kg,ip administrated once per week for 4 weeks", "assay_type": "organism-based", "settings": "in vivo, 672 h, dose 2.5-5 mg/kg"}, "HCT-116 [4]": {"tested_on": "HCT-116", "experiment": "Induction of apoptosis in human HCT-116 cells assessed as downregulation of DHODH gene expression at 10 to 500 nM incubated for 6 to 48 hrs by RNA analysis", "assay_type": "functional, cell-based", "settings": "dose 10-500 nM, time 6-48 hrs"}, "HCT-116 [5]": {"tested_on": "HCT-116", "experiment": "Induction of apoptosis in human HCT-116 cells assessed as downregulation of ADK gene expression at 10 to 500 nM incubated for 6 to 48 hrs by RNA analysis", "assay_type": "functional, cell-based", "settings": "dose 10-500 nM, time 6-48 hrs"}, "HCT-116 [6]": {"tested_on": "HCT-116", "experiment": "Induction of apoptosis in human HCT-116 cells assessed as early apoptotic cells at 5 nM incubated for 48 hrs by Annexin V-FITC/PI staining based flow cytometry assay", "assay_type": "functional"}, "PDX27454 [7]": {"tested_on": "PDX27454", "experiment": "Antitumor activity against human PDX27454 cells xenografted in SCID mouse model assessed as reduction in tumor growth at 5 to 15 mg/kg,ip administrated once per week for 4 weeks", "assay_type": "functional, organism-based", "settings": "dose 5-15 mg/kg"}, "HCT-116 [8]": {"tested_on": "HCT-116", "experiment": "Induction of apoptosis in human HCT-116 cells assessed as upregulation of p21 protein expression incubated for 48 hrs by Western blotting analysis", "assay_type": "functional, cell-based"}, "HCT-116 [9]": {"tested_on": "HCT-116", "experiment": "Induction of apoptosis in human HCT-116 cells assessed as upregulation of Bax protein expression incubated for 48 hrs by Western blotting analysis", "assay_type": "functional, cell-based"}, "HCT-116 [10]": {"tested_on": "HCT-116", "experiment": "Induction of apoptosis in human HCT-116 cells assessed as late apoptotic cells at 5 nM incubated for 48 hrs by Annexin V-FITC/PI staining based flow cytometry assay", "assay_type": "functional"}, "HCT-116 [11]": {"tested_on": "HCT-116", "experiment": "Induction of apoptosis in human HCT-116 cells assessed as downregulation of Bcl-2 protein expression incubated for 48 hrs by Western blotting analysis", "assay_type": "functional, cell-based"}, "HCT-116 [12]": {"tested_on": "HCT-116", "experiment": "Induction of apoptosis in human HCT-116 cells assessed as late apoptotic cells at 10 nM incubated for 48 hrs by Annexin V-FITC/PI staining based flow cytometry assay", "assay_type": "functional"}, "HCT-116 [13]": {"tested_on": "HCT-116", "experiment": "Induction of apoptosis in human HCT-116 cells assessed as early apoptotic cells at 2.5 nM incubated for 48 hrs by Annexin V-FITC/PI staining based flow cytometry assay", "assay_type": "functional"}, "Cell membrane": {"tested_on": "Cell membrane", "experiment": "Induction of mitochondrial membrane potential loss in human HCT-116 cells assessed as ratio of red to green fluorescence intensity at 20 nM incubated for 24 hrs by JC-1 staining based flow cytometry", "assay_type": "subcellular"}, "HCT-116 [14]": {"tested_on": "HCT-116", "experiment": "Induction of apoptosis in human HCT-116 cells assessed as upregulation of cytochrome-C protein expression incubated for 48 hrs by Western blotting analysis", "assay_type": "functional, cell-based"}, "[15]": {"experiment": "Toxicity in SCID mouse xenografted with human PDX27454 cells assessed as body weight loss at 15 mg/kg,ip administrated once per week for 4 weeks", "assay_type": "organism-based", "settings": "in vivo, 672 h"}, "PDX27454 [16]": {"tested_on": "PDX27454", "experiment": "Antitumor activity against human PDX27454 cells xenografted in SCID mouse model assessed as reduction in tumor growth at 15 mg/kg,po administrated once per week for 4 weeks", "assay_type": "functional, organism-based"}, "PDX27454 [17]": {"tested_on": "PDX27454", "experiment": "Antitumor activity against human PDX27454 cells xenografted in SCID mouse model assessed as reduction in tumor growth at 10 mg/kg,ip administrated once per week for 4 weeks", "assay_type": "functional, organism-based"}, "[18]": {"experiment": "Toxicity in SCID mouse xenografted with human PDX27454 cells assessed as body weight loss at 10 mg/kg,ip administrated once per week for 4 weeks", "assay_type": "organism-based", "settings": "in vivo, 672 h"}}, "note": "Calls of active or inactive are those of the source. The calls are words filed in the database; no cut-off is given here.", "data": [{"smiles": "CC[C@@]1(O)C(=O)OCc2c1cc1n(c2=O)Cc2c-1nc1cc3c(cc1c2-c1ccc(OC)cc1)OCO3", "values": [{"measurement": "Activity", "setting": "PDX27454 [1]", "value": "Active"}, {"measurement": "Activity", "setting": "[2]", "value": "Toxic"}, {"measurement": "Activity", "setting": "[3]", "value": "Toxic"}]}, {"smiles": "CC[C@@]1(O)C(=O)OCc2c1cc1n(c2=O)Cc2cc3cc4c(cc3nc2-1)OCO4", "values": [{"measurement": "Activity", "setting": "HCT-116 [4]", "value": "Active"}, {"measurement": "Activity", "setting": "HCT-116 [5]", "value": "Active"}]}, {"smiles": "CC[C@@]1(O)C(=O)OCc2c1cc1n(c2=O)Cc2c-1nc1cc3c(cc1c2-c1cc(OC)cc(OC)c1)OCO3", "values": [{"measurement": "Activity", "setting": "HCT-116 [6]", "value": 26.86, "unit": "%"}, {"measurement": "Activity", "setting": "PDX27454 [7]", "value": "Active"}, {"measurement": "Activity", "setting": "HCT-116 [8]", "value": "Dose-Dependent Effect"}, {"measurement": "Activity", "setting": "HCT-116 [9]", "value": "Dose-Dependent Effect"}, {"measurement": "Activity", "setting": "HCT-116 [10]", "value": 9.79, "unit": "%"}, {"measurement": "Activity", "setting": "HCT-116 [11]", "value": "Dose-Dependent Effect"}, {"measurement": "Activity", "setting": "HCT-116 [12]", "value": 10.87, "unit": "%"}, {"measurement": "Activity", "setting": "HCT-116 [13]", "value": 20.76, "unit": "%"}, {"measurement": "Ratio", "setting": "Cell membrane", "value": 2.62}, {"measurement": "Activity", "setting": "HCT-116 [14]", "value": "Dose-Dependent Effect"}]}, {"smiles": "CCc1ccc(-c2c3c(nc4cc5c(cc24)OCO5)-c2cc4c(c(=O)n2C3)COC(=O)[C@]4(O)CC)cc1", "values": [{"measurement": "Activity", "setting": "[15]", "value": "Non-Toxic"}, {"measurement": "Activity", "setting": "PDX27454 [16]", "value": "Active"}, {"measurement": "Activity", "setting": "PDX27454 [17]", "value": "inactive"}, {"measurement": "Activity", "setting": "[18]", "value": "Non-Toxic"}]}]}
